From patent US20180000085A1, “USE OF PICOLINAMIDE COMPOUNDS WITH FUNGICIDAL ACTIVITY” (DOW AGROSCIENCES LLC, priority 2014, published 2018)

Assays:
Zymoseptoria tritici = test: Leaf blotch of wheat (SEPTTR) disease control on wheat seedlings; format: in vivo; parameters: key to SEPTTR 1DP, HV activity at 100 ppm (% control rating) / SEPTTR 3DC, HV activity at 100 ppm (% control rating) / SEPTTR disease control, 1DP / SEPTTR disease control, 3DC / SEPTTR 1DP disease control rating, HV activity / SEPTTR 3DC disease control rating, HV activity / SEPTTR 3DC, LV activity at 125.1 g/H (% Control rating) / SEPTTR 1DP, LV activity at 125.1 g/H (% Control rating) / SEPTTR 1DP disease control rating, LV activity at 125.1 g/H / SEPTTR 3DC disease control rating, LV activity at 125.1 g/H / SEPTTR 3DC disease control rating, HV activity at 100 ppm / SEPTTR 1DP disease control rating, HV activity at 100 ppm / HV activity at 100 ppm SEPTTR 3DC (disease control rating) / HV activity at 100 ppm SEPTTR 1DP (disease control rating) / LV activity at 125.1 g/H SEPTTR 1DP (disease control rating) / LV activity at 125.1 g/H SEPTTR 3DC (disease control rating): A: > 80; B: ≤ 80; C: Not Tested; D: No Activity Observed in the Reported Assay; conditions: for SEPTTR 1DP disease control rating, HV activity at 100 ppm / SEPTTR 3DC disease control rating, HV activity at 100 ppm: high volume application; for SEPTTR 1DP disease control rating, HV activity at 100 ppm / SEPTTR 1DP disease control rating, LV activity at 125.1 g/H: 1 day protectant; for SEPTTR 3DC disease control rating, HV activity at 100 ppm / SEPTTR 3DC disease control rating, LV activity at 125.1 g/H: 3 day curative; for SEPTTR 1DP disease control rating, HV activity / SEPTTR 3DC disease control rating, HV activity: HV application at 100 ppm
Puccinia triticina = test: Wheat brown rust (PUCCRT) disease control on wheat seedlings; format: in vivo; parameters: key to PUCCRT 3DC, HV activity at 100 ppm (% control rating) / PUCCRT disease control, 3DC / PUCCRT 1DP disease control rating, HV activity / PUCCRT 3DC disease control rating, HV activity / PUCCRT 3DC, LV activity at 125.1 g/H (% Control rating) / PUCCRT 1DP, LV activity at 125.1 g/H (% Control rating) / PUCCRT 3DC disease control rating, LV activity at 125.1 g/H / PUCCRT 1DP disease control rating, LV activity at 125.1 g/H / PUCCRT 3DC disease control rating, HV activity at 100 ppm / PUCCRT 1DP disease control rating, HV activity at 100 ppm / HV activity at 100 ppm PUCCRT 3DC (disease control rating) / LV activity at 125.1 g/H PUCCRT 1DP (disease control rating) / LV activity at 125.1 g/H PUCCRT 3DC (disease control rating): A: > 80; B: ≤ 80; C: Not Tested; D: No Activity Observed in the Reported Assay; conditions: for PUCCRT 1DP disease control rating, HV activity at 100 ppm / PUCCRT 3DC disease control rating, HV activity at 100 ppm: high volume application; for PUCCRT 1DP disease control rating, HV activity at 100 ppm / PUCCRT 1DP disease control rating, LV activity at 125.1 g/H: 1 day protectant; for PUCCRT 3DC disease control rating, HV activity at 100 ppm / PUCCRT 3DC disease control rating, LV activity at 125.1 g/H: 3 day curative; for PUCCRT 1DP disease control rating, HV activity / PUCCRT 3DC disease control rating, HV activity: HV application at 100 ppm
[1] = 1 Day Protectant, wheat leaf blotch
[2] = 3 Day Curative, wheat leaf blotch
[3] = 1 Day Protectant, wheat brown rust
[4] = 3 Day Curative, wheat brown rust
[5] = low volume application, 125.1 g/H
[6] = low volume application, 125.1 g/H, 1 Day Protectant
[7] = low volume application, 125.1 g/H, 3 Day Curative

COc1ccnc(C(=O)N[C@@H](C)C(=O)O[C@@H](C)[C@@H](CC(C)C)Oc2cccc(F)c2)c1O [Cmpd 1048]
HV activity at 100 ppm SEPTTR 1DP (disease control rating) (Zymoseptoria tritici; HV application, 100 ppm, 1 Day Protectant, wheat leaf blotch): B (≤ 80)
HV activity at 100 ppm SEPTTR 3DC (disease control rating) (Zymoseptoria tritici; HV application, 100 ppm, 3 Day Curative, wheat leaf blotch): A (> 80)
HV activity at 100 ppm PUCCRT 1DP (disease control rating) (Puccinia triticina; HV application, 100 ppm, 1 Day Protectant, wheat brown rust): A (> 80)
HV activity at 100 ppm PUCCRT 3DC (disease control rating) (Puccinia triticina; HV application, 100 ppm, 3 Day Curative, wheat brown rust): A (> 80)

COc1ccnc(C(=O)NC(C)C(=O)OC(C)C(Oc2ccc(F)cc2)c2ccccc2)c1O (centres unmarked) [Cmpd 837]
SEPTTR 1DP disease control rating, HV activity at 100 ppm (Zymoseptoria tritici; 100 ppm): A (> 80)
SEPTTR 3DC disease control rating, HV activity at 100 ppm (Zymoseptoria tritici; 100 ppm): A (> 80)
PUCCRT 1DP disease control rating, HV activity at 100 ppm (Puccinia triticina; 100 ppm): A (> 80)
PUCCRT 3DC disease control rating, HV activity at 100 ppm (Puccinia triticina; 100 ppm): A (> 80)

CCC[C@@H](Oc1cccc(OC)c1)[C@H](C)OC(=O)[C@H](C)NC(=O)c1nccc(OC)c1O [Cmpd 1013]
SEPTTR 1DP disease control rating, HV activity at 100 ppm (Zymoseptoria tritici; 100 ppm): B (≤ 80)
SEPTTR 3DC disease control rating, HV activity at 100 ppm (Zymoseptoria tritici; 100 ppm): B (≤ 80)
PUCCRT 1DP disease control rating, HV activity at 100 ppm (Puccinia triticina; 100 ppm): A (> 80)
PUCCRT 3DC disease control rating, HV activity at 100 ppm (Puccinia triticina; 100 ppm): A (> 80)

CCC(CC)[C@H](Oc1ccc(Cl)cc1)[C@H](C)OC(=O)[C@H](C)NC(=O)c1nccc(OC)c1O [Cmpd 420]
SEPTTR 1DP disease control rating, HV activity (Zymoseptoria tritici; [1]): A (> 80)
SEPTTR 3DC disease control rating, HV activity (Zymoseptoria tritici; [2]): B (≤ 80)
PUCCRT 1DP disease control rating, HV activity (Puccinia triticina; [3]): B (≤ 80)
PUCCRT 3DC disease control rating, HV activity (Puccinia triticina; [4]): B (≤ 80)

CCC(CCC(C)C)C(Oc1ccccc1)C(C)OC(=O)C(C)NC(=O)c1nccc(OC)c1O (centres unmarked) [Cmpd 317]
SEPTTR 1DP disease control rating, HV activity (Zymoseptoria tritici; [1]): A (> 80)
SEPTTR 3DC disease control rating, HV activity (Zymoseptoria tritici; [2]): B (≤ 80)
PUCCRT 1DP disease control rating, HV activity (Puccinia triticina; [3]): A (> 80)
PUCCRT 3DC disease control rating, HV activity (Puccinia triticina; [4]): B (≤ 80)

COc1ccnc(C(=O)N[C@@H](C)C(=O)O[C@@H](C)[C@@H](OCC(C)C)c2ccccc2)c1OCOC(C)=O [Cmpd 880]
SEPTTR 1DP disease control rating, LV activity at 125.1 g/H (Zymoseptoria tritici; [5]): B (≤ 80)
SEPTTR 3DC disease control rating, LV activity at 125.1 g/H (Zymoseptoria tritici; [5]): B (≤ 80)
PUCCRT 1DP disease control rating, LV activity at 125.1 g/H (Puccinia triticina; [5]): A (> 80)
PUCCRT 3DC disease control rating, LV activity at 125.1 g/H (Puccinia triticina; [5]): A (> 80)

COc1ccnc(C(=O)N[C@@H](C)C(=O)O[C@@H](C)[C@H](Oc2cccc(Cl)c2)C(C)C)c1OCOC(=O)C(C)C [Cmpd 571]
SEPTTR 1DP, LV activity at 125.1 g/H (% Control rating) (Zymoseptoria tritici; [6]): B (≤ 80)
SEPTTR 3DC, LV activity at 125.1 g/H (% Control rating) (Zymoseptoria tritici; [7]): A (> 80)
PUCCRT 1DP, LV activity at 125.1 g/H (% Control rating) (Puccinia triticina; [6]): A (> 80)
PUCCRT 3DC, LV activity at 125.1 g/H (% Control rating) (Puccinia triticina; [7]): A (> 80)

COc1ccnc(C(=O)N[C@@H](C)C(=O)O[C@@H](C)[C@H](Oc2ccc(C)cc2)C2CCCC2)c1O [Cmpd 846, (S)-(1R,2S)-1-cyclopentyl-1-(p-tolyloxy)propan-2-yl-2-(3-hydroxy-4-methoxypicolinamido)propanoate]
SEPTTR 1DP disease control rating, HV activity at 100 ppm (Zymoseptoria tritici; 100 ppm): B (≤ 80)
SEPTTR 3DC disease control rating, HV activity at 100 ppm (Zymoseptoria tritici; 100 ppm): B (≤ 80)
PUCCRT 1DP disease control rating, HV activity at 100 ppm (Puccinia triticina; 100 ppm): A (> 80)
PUCCRT 3DC disease control rating, HV activity at 100 ppm (Puccinia triticina; 100 ppm): A (> 80)

CC[C@H](C)[C@H](NC(=O)c1nccc(OC)c1OCOC(C)=O)C(=O)O[C@@H](C)[C@H](Oc1ccc(C(F)(F)F)cc1)C(C)C [Cmpd 620]
SEPTTR 1DP, LV activity at 125.1 g/H (% Control rating) (Zymoseptoria tritici; [6]): D
SEPTTR 3DC, LV activity at 125.1 g/H (% Control rating) (Zymoseptoria tritici; [7]): B (≤ 80)
PUCCRT 1DP, LV activity at 125.1 g/H (% Control rating) (Puccinia triticina; [6]): B (≤ 80)
PUCCRT 3DC, LV activity at 125.1 g/H (% Control rating) (Puccinia triticina; [7]): B (≤ 80)

COc1ccnc(C(=O)NC(C)C(=O)OC(C)C(Oc2cccc(C(F)(F)F)c2)C(C)C)c1OC(C)=O (centres unmarked) [Cmpd 858]
SEPTTR 1DP disease control rating, LV activity at 125.1 g/H (Zymoseptoria tritici; [5]): B (≤ 80)
SEPTTR 3DC disease control rating, LV activity at 125.1 g/H (Zymoseptoria tritici; [5]): A (> 80)
PUCCRT 1DP disease control rating, LV activity at 125.1 g/H (Puccinia triticina; [5]): A (> 80)
PUCCRT 3DC disease control rating, LV activity at 125.1 g/H (Puccinia triticina; [5]): A (> 80)

C=CC[C@@H](OCC1CC1)[C@H](C)OC(=O)[C@H](C)NC(=O)c1nccc(OC)c1OC(C)=O [Cmpd 1085]
LV activity at 125.1 g/H SEPTTR 1DP (disease control rating) (Zymoseptoria tritici; low volume application, 125.1 g/H, 1 Day Protectant, wheat leaf blotch): D
LV activity at 125.1 g/H SEPTTR 3DC (disease control rating) (Zymoseptoria tritici; low volume application, 125.1 g/H, 3 Day Curative, wheat leaf blotch): D
LV activity at 125.1 g/H PUCCRT 1DP (disease control rating) (Puccinia triticina; low volume application, 125.1 g/H, 1 Day Protectant, wheat brown rust): D
LV activity at 125.1 g/H PUCCRT 3DC (disease control rating) (Puccinia triticina; low volume application, 125.1 g/H, 3 Day Curative, wheat brown rust): B (≤ 80)
